From patent US20030143729A1 (Synaptic Pharmaceutical Corporation, priority 1992, published 2003)
“And” between values parts separate entries of the source, which are not always exact repeats. Identical values can stand only once. Like-named read-outs stand apart in the source and are kept apart here. One block for each compound: values may come before it.

Columns and labels:
GAT-1 = biological target: T1, GAT-1 (Rattus norvegicus, UniProt P23978); experiment: [3H]GABA uptake by COS-7 cells transfected with GAT-1 (rB46a); format: cell-based
T1 construct: expressed in transfected cells; host or cells: COS-7 cells, transient (DEAE-dextran)

human GAT-3 = biological target: T2, human GAT-3 (Homo sapiens, UniProt P48066); settings: 50 nM [3H]GABA
T2 sequence (P48066 1-632): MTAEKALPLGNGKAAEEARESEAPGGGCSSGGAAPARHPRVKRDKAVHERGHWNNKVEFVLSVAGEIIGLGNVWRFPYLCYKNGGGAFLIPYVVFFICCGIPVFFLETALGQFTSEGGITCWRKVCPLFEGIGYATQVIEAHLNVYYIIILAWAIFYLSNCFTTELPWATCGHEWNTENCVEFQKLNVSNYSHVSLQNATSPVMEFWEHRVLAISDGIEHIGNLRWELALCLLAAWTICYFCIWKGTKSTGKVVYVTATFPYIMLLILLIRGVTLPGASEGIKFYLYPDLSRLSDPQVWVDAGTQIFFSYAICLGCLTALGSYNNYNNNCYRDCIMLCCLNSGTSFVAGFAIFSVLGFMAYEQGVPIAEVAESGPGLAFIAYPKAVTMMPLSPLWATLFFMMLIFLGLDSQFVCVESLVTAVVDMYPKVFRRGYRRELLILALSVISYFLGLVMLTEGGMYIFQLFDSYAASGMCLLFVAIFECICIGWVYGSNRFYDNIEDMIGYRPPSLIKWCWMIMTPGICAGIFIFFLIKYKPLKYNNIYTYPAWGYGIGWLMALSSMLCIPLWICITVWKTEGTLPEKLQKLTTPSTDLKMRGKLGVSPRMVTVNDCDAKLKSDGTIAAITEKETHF
Protocol: (§1) Cells were grown under standard conditions (37° C., 5% CO2) in Dulbecco's modified Eagles's medium (GIBCO, Grand Island, N.Y.).
(§2) Cells grown in 24-well plates were washed 3× with HEPES-buffered saline (HBS, in mM: NaCl, 150; HEPES, 20; CaCl2, 1; glucose, 10; KCl, 5; MgCl2, 1; pH 7.4) and allowed to equilibrate on a 37° C. slide warmer. After 10 minutes the medium was removed and unlabeled drugs in HBS were added (450 μl/well). […] Plates were incubated at 37° C. for 10 minutes, then washed rapidly 3× with ice-cold HBS, using a 24-position plate washer (Brandel, Gaithersburg, Mass.; model PW-12). Cells were solubilized with 0.05% sodium deoxycholate/0.1N NaOH (0.25 ml/well), an aliquot neutralized with 1N HCl, and radioactivity was determined by scintillation counting. Protein was quantified in an aliquot of the solubilized cells using a BIO-RAD protein assay kit, according to the manufacturer's directions.
(§3) Lipophilic inhibitors were dissolved in DMSO.
(§4) Data Analysis: Competition curves were conducted in duplicate, using 10 concentrations of unlabeled drug.

rat GAT-2 = biological target: T3, rat GAT-2 (Rattus norvegicus, UniProt P31646)
T3 sequence (P31646 1-602): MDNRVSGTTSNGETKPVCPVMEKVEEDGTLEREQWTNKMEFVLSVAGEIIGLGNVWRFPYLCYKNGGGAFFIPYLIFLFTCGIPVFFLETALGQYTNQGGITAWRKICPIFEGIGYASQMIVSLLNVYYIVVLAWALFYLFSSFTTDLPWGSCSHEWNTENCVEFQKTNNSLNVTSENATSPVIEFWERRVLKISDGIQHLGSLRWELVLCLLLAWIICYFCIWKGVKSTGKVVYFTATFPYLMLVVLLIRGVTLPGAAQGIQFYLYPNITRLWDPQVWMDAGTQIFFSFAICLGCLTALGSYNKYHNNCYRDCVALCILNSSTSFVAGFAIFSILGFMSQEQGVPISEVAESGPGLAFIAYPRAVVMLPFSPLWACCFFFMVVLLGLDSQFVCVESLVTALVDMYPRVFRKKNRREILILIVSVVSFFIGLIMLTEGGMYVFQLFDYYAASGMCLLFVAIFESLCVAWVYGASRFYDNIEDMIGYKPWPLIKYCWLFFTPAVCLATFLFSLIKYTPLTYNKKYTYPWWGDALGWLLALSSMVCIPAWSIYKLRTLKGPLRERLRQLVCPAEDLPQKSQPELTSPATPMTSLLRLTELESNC
Protocol: as §1, §2, §3, §4

[1] = system: endogenous taurine transporter in COS cells; experiment: [3H]taurine uptake by non-transfected COS-7 cells (control); format: cell-based; settings: 50 nM [3H]taurine, 10 minutes, 37° C.
rat GAT-1 = rat GAT-1 (Rattus norvegicus, UniProt P23978); settings: for IC50: read-out: IC50 for inhibition of [3H]GABA uptake, rGAT-1 (Table 8)
Protocol: as §2, §3, §4
COS cells grown in 75 cm^2 or 150 cm^2 flasks in DMEM with 10% bovine calf serum, 100 U/ml penicillin G, and 100 μg/ml streptomycin sulfate (37° C., 5% CO2) were transfected using DEAE-dextran. On the day following transfection the cells were split into 24-well assay plates coated with poly-D-lysine (10 μg/ml), and transport was measured 24 hours later.
After 10 minutes the medium was removed and unlabeled drugs in HBS were added (450 μl/well). […] Plates were incubated at 37° C. for 10 minutes, then washed rapidly 3× with ice-cold HBS, using a 24-position plate washer (Brandel, Gaithersburg, Mass.; model PW-12). Cells were solubilized with 0.05% sodium deoxycholate/0.1N NaOH (0.25 ml/well), an aliquot neutralized with 1N HCl, and radioactivity was determined by scintillation counting. Protein was quantified in an aliquot of the solubilized cells using a BIO-RAD protein assay kit, according to the manufacturer's directions.

hBGT-1 [2] = biological target: T4, hBGT-1 (Homo sapiens, UniProt P48065); experiment: cell-based
T4 sequence (P48065 1-614): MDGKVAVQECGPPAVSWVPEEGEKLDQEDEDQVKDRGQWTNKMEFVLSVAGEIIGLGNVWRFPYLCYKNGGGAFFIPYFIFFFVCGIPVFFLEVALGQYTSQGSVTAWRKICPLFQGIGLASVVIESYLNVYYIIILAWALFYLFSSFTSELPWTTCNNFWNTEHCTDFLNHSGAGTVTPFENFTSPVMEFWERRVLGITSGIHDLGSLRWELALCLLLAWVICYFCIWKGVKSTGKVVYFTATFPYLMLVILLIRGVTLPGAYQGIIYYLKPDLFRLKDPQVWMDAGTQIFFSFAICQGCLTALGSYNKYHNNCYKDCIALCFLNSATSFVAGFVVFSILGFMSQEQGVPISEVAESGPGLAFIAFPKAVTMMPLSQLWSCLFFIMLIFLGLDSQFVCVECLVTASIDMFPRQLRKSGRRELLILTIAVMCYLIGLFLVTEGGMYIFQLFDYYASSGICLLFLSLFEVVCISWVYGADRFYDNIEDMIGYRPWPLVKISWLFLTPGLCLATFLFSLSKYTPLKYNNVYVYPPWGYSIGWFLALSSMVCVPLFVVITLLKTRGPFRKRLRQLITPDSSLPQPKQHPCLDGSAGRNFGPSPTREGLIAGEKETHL
Protocol: as §1, §2, §3, §4

human GAT-1 [3] = biological target: T5, human GAT-1 (Homo sapiens, UniProt P30531); experiment: cell-based
Protocol: as §1, §2, §3, §4

human GAT-1 [4] = biological target: T5, human GAT-1; settings: read-out: IC50 for inhibition of [3H]GABA uptake, human GAT-1
Protocol: as §1, §2, §3, §4

hBGT-1 [5] = biological target: T4, hBGT-1; settings: read-out: IC50 for inhibition of [3H]GABA uptake, human BGT-1; stable cell line; 50 nM [3H]GABA
Protocol: as §1, §2, §3, §4

animals = settings: in vivo; cited from earlier work
[6] = COS-7, read-out: % Inhibition of [3H]GABA uptake, GAT-1
[7] = IC50 for inhibition of [3H]GABA uptake, human GAT-3, stable cell line

T5 sequence (P30531 whole entry): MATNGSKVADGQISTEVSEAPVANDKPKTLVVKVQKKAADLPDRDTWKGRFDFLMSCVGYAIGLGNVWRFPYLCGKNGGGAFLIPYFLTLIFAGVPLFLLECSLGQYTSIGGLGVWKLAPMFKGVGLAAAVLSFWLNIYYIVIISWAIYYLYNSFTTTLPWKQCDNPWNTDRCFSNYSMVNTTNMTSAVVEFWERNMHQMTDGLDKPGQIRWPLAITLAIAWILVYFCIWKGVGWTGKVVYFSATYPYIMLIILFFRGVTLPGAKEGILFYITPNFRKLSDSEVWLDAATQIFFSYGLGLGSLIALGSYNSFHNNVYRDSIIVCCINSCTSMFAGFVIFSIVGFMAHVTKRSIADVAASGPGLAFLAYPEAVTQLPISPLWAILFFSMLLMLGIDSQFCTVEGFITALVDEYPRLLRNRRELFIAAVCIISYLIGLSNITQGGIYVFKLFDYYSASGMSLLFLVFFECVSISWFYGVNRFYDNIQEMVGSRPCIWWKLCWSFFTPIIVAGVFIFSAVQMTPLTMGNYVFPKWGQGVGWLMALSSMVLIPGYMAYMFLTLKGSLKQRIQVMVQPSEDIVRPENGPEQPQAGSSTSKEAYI

Compound: N[C@@H]1CCC[C@H](C(=O)O)C1 (relative stereo) [ACHC, cis-3-aminocyclohexanecarboxylic acid]
inhibition at 100 µM (GAT-1; [6]): 49 ± 10%

IC50 (human GAT-3; [7]): ~5 µM and ~7 µM
IC50 (rat GAT-2): ~5 µM
Compound: NCCCC(=O)O [GABA, gamma-aminobutyric acid]

Compound: NCCS(=O)O [hypotaurine]
% Inhibition of [3H]taurine uptake, control ([1]; inhibitor 10 μM): 41 ± 3 (7) %
% Inhibition of [3H]taurine uptake, control ([1]; inhibitor 100 μM): 91 ± 1 (4) %
% Inhibition of [3H]taurine uptake, control ([1]; inhibitor 1 mM): 99 ± 1 (4) %

Compound: NCCS(=O)(=O)O [taurine, 2-aminoethanesulfonic acid]
% Inhibition of [3H]taurine uptake, control ([1]; inhibitor 10 μM): 38 ± 5 (7) %
% Inhibition of [3H]taurine uptake, control ([1]; inhibitor 100 μM): 89 ± 2 (4) %
% Inhibition of [3H]taurine uptake, control ([1]; inhibitor 1 mM): 100° %

IC50 (rat GAT-1; full competition curves, 50 nM [3H]GABA): 4840 µM
Compound: N=C(N)NCCS(=O)(=O)O [GES, guanidinoethanesulfonic acid]
% Inhibition of [3H]taurine uptake, control ([1]; inhibitor 10 μM): 6 ± 3 (4) %
% Inhibition of [3H]taurine uptake, control ([1]; inhibitor 100 μM): 47 ± 3 (5) %
% Inhibition of [3H]taurine uptake, control ([1]; inhibitor 1 mM): 89 ± 1 (5) %

Compound: NCC[C@H](N)C(=O)O [L-DABA, L-(2,4)diaminobutyric acid]
inhibition at 100 µM (GAT-1; [6]): 49 ± 8%

IC50 (hBGT-1 [2]): > 1000 µM
inhibition at 10 µM (GAT-1; [6]): 41 ± 3%
Compound: O=C(O)C1=CCCNC1 [guvacine]

Compound: NCCC(=O)O [β-alanine]
IC50 (hBGT-1 [2]; IC50 at hBGT-1): > 1000 µM
IC50 (hBGT-1 [2]; IC50 for inhibition of [3H]GABA uptake, human BGT-1, stable cell line, 50 nM [3H]GABA): 1320 ± 224 µM
IC50 (human GAT-3; [7]): ~58 µM and 58 µM
IC50 (rat GAT-2): 19 ± 7 µM
inhibition at 100 µM (GAT-1; [6]): 11 ± 1%
IC50 (human GAT-1 [3]): 5690 ± 1890 µM
% Inhibition of [3H]taurine uptake, control ([1]; inhibitor 10 μM): 9 ± 2 (6) %
% Inhibition of [3H]taurine uptake, control ([1]; inhibitor 100 μM): 63 ± 3 (6) %
% Inhibition of [3H]taurine uptake, control ([1]; inhibitor 1 mM): 97 ± 1 (4) %

Compound: hydroxynipecotic acid [OH-nipecotic]
IC50 (rat GAT-1): 44 ± 8 µM
% Inhibition of [3H]GABA uptake, GAT-1 (GAT-1; inhibitor 10 μM, 50 nM [3H]GABA, 10 minutes, 37° C.): 34 ± 5 (3) %

Compound: O=C(O)C1=CCCN(CCON=C(c2ccccc2)c2ccccc2)C1 [NNC-711]
selectivity for GAT-1 (rat GAT-1): 1,000 fold
IC50 (rat GAT-1): 0.38 µM
IC50 (human GAT-1 [4]): 0.04 ± 0.01 µM
IC50 (human GAT-3; read-out: IC50 for inhibition of [3H]GABA uptake, human GAT-3, stable cell line): 1700 ± 252 µM
IC50 (hBGT-1 [5]): 622 ± 265 µM
IC50 (rat GAT-2; read-out: IC50 for inhibition of [3H]GABA uptake, rat GAT-2, stable cell line, 50 nM [3H]GABA): 171 ± 53 µM
anticonvulsive activity in animals (animals): anticonvulsive activity
